PubChem BioAssay (NCI)
Several values for one entry are separate records, joined by “and”; a condition that tells them apart may be missing. Equal entries are not always repeated.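 96-well plates; 48 h exposure; 5 concentrations. Endpoints by linear interpolation between flanking doses. Not reached: highest tested concentration assigned. GI50 is the concentration that inhibits growth by half. TGI marks complete inhibition of growth.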

What was measured:
Test in all cases: growth of human tumour cells (NCI), 48 h
DU-145 prostate = tested on: DU-145 prostate
RXF 393 renal = tested on: RXF 393 renal
HL-60(TB) leukemia = tested on: HL-60(TB) leukemia
HOP-92 NSCLC = tested on: HOP-92 NSCLC
KM12 colon = tested on: KM12 colon
U251 CNS = tested on: U251 CNS
TK-10 renal = tested on: TK-10 renal
SN12C renal = tested on: SN12C renal
NCI-H23 lung = tested on: NCI-H23 lung
OVCAR-3 ovarian = tested on: OVCAR-3 ovarian

| Compound | TGI (DU-145 prostate) | TGI (RXF 393 renal) [µM] | TGI (HL-60(TB) leukemia) | TGI (HOP-92 NSCLC) | TGI (KM12 colon) | TGI (U251 CNS) [µM] | TGI (TK-10 renal) [µM] | TGI (SN12C renal) | TGI (NCI-H23 lung) | TGI (OVCAR-3 ovarian) | GI50 (DU-145 prostate) | GI50 (RXF 393 renal) | GI50 (HL-60(TB) leukemia) | GI50 (HOP-92 NSCLC) | GI50 (KM12 colon) | GI50 (U251 CNS) | GI50 (TK-10 renal) | GI50 (SN12C renal) | GI50 (NCI-H23 lung) | GI50 (OVCAR-3 ovarian) |
| --- | --- | --- | --- | --- | --- | --- | --- | --- | --- | --- | --- | --- | --- | --- | --- | --- | --- | --- | --- | --- |
| O=C1/C(=C/c2ccccc2)CN(C(=O)/C=C/c2ccccc2)C/C1=C\c1ccccc1 | 40.9 µM | 30.4 | 16.4 µM | 62.2 µM | 12.2 µM | 7.37 | 65.3 | 16 µM | 32.6 µM | 24.7 µM | – | – | – | – | – | – | – | – | – | – |
| Cc1nc2ccccc2c(/C=C/c2ccc(F)cc2)c1C(=O)/C=C/c1ccccc1 | 6.21 µM | 3.26 | 6.93 µM | 31.5 µM | 6.82 µM | 3.18 | > 100 | 6.07 µM | 5.43 µM | 3.12 µM | 2.34 µM | 1.74 µM | 2.55 µM | 2.02 µM | 2.38 µM | 1.74 µM | 4.05 µM | 2.25 µM | 1.99 µM | 1.57 µM |
| CC(=O)OC1CCC2(C)C(=CCC3C2CCC2(C)C3CC3OC4(CCC(C)CN4)C(C)C32)C1 (stereo unspecified) | > 100 µM | > 100 | > 100 µM | > 100 µM | > 100 µM | > 100 | > 100 | > 100 µM | > 100 µM | > 100 µM | – | – | – | – | – | – | – | – | – | – |
| CC(C)OC(=O)NNc1c(Cl)cc(Cl)cc1Cl | > 100 µM | 69.5 | > 100 µM | > 100 µM | > 100 µM | > 100 | > 100 | > 100 µM | > 100 µM | > 100 µM | – | – | – | – | – | – | – | – | – | – |
| CC(C)(C)c1ccc(OCCCCCCCN2CCNCC2)cc1 | 3.37 µM | 3.37 | 3.3 µM | 6.11 µM | 3.6 µM | 3.05 | 3.06 | 7.62 µM | 17.6 µM | 3.12 µM | 1.78 µM | 1.69 µM | 1.45 µM | 1.72 µM | 1.85 µM | 1.51 µM | 1.6 µM | 2.73 µM | 4.28 µM | 1.63 µM |
| CC(=O)OC1C(C)OC(Oc2c(-c3ccc(O)cc3)oc3cc(O)cc(O)c3c2=O)C(O)C1OC(C)=O (stereo unspecified) | > 94.1 µM | 71.8 | 61.3 µM | 54.3 µM | > 83.8 µM | > 100 | > 90.8 | 97.5 µM | > 80.7 µM | 45.3 µM | 31.7 µM | 24.2 µM | 23.9 µM | 13.2 µM | 29.4 µM | 32.1 µM | 31.9 µM | 27.3 µM | 26.4 µM | 20.6 µM |
| CCCCCCCCCCCCNCCCc1ccccc1 | 3.51 µM | 3.1 | 3.73 µM | 2.83 µM | 3.13 µM | 2.86 | 2.98 | 3.27 µM | 3.65 µM | 3.18 µM | 1.92 µM | 1.63 µM | 1.89 µM | 1.34 µM | 1.75 µM | 1.53 µM | 1.63 µM | 1.63 µM | 1.9 µM | 1.79 µM |
| Cc1nc2sc(C(=O)Nc3cccc4c3OCCO4)c(N)c2cc1C(C)O (stereo unspecified) | > 100 µM | > 100 | 13 µM | > 100 µM | > 100 µM | > 100 | > 100 | > 100 µM | > 100 µM | > 100 µM | 8.31 µM | 2.92 µM | 2.99 µM | 5.52 µM | 3.85 µM | 4.66 µM | > 100 µM | 5.65 µM | 6.67 µM | 3.6 µM |
| COc1cccc(C2=C(c3cn(C)c4c(C)cccc34)C(=O)NC2=O)c1 | > 25 µM | > 25 | > 25 µM | > 25 µM | > 25 µM | > 25 | > 25 | > 25 µM | > 25 µM | > 25 µM | > 25 µM | 8.58 µM | > 25 µM | > 25 µM | > 21 µM | 14.9 µM | > 25 µM | > 25 µM | > 25 µM | 16.5 µM |
| Cc1cc(N)c2cc(NC(=O)/C=C\c3ccccc3Cl)ccc2n1 | 2.87 µM | 2.91 | 3.31 µM | 3.27 µM | 2.11 µM | 0.724 | 3.69 | 2.69 µM | 3.32 µM | 2.7 µM | 1.45 µM | 1.45 µM | 1.67 µM | 1.56 µM | 0.767 µM | 0.269 µM | 2.11 µM | 1.36 µM | 1.73 µM | 1.31 µM |
| CCOC(=O)c1ccc(N[C@@H]2c3cc4c(cc3C(c3cc(OC)c(O)c(OC)c3)[C@H]3C(=O)OCC32)OCO4)cc1 (stereo partly specified) | > 100 µM | 5.93 | 0.282 µM and 0.889 µM | – | 5.29 µM | 3.27 | 11.3 | 0.955 µM and 3.91 µM | 0.768 µM and 2.24 µM | 6.71 µM | – | 0.426 µM and 1.95 µM | 0.0114 µM | 0.35 µM | 0.875 µM | 0.203 µM | 5 µM | 0.249 µM | 0.191 µM | – |
| CCOC(=O)c1nc2sc(Cl)cn2c1/C=N/N=C(N)N | > 67.5 µM | > 70.2 | > 100 µM | 40.8 µM | 36.6 µM | > 53.9 | 47.6 | 57.6 µM | > 69.8 µM | 42.1 µM | 24.8 µM | 18.8 µM | 26.1 µM | 20 µM | 18.3 µM | 23.6 µM | 22.2 µM | 24 µM | 20.4 µM | 21.5 µM |
| O=[N+]([O-])c1cc2c(ccc3ccccc32)o1 | 4.81 µM | 0.789 | 4.52 µM | 0.774 µM | 4.02 µM | 5.62 | 7.43 | 22.7 µM | 2.03 µM | 4.64 µM | 0.341 µM | 0.311 µM | 0.331 µM | 0.257 µM | 0.973 µM | 0.835 µM | 1.82 µM | 0.568 µM | 0.331 µM | 1.31 µM |
| O=C(Nc1ccc(Br)cc1)c1cc(Br)ccc1O | > 47 µM and 14.1 µM | 3.89 | 4.54 µM and 3.8 µM | 0.698 µM and 2.88 µM | 4.99 µM and 5.31 µM | > 100 | > 22.1 | 5.14 µM and 8.36 µM | 2.06 µM and 4.34 µM | 7.81 µM and 7.14 µM | 0.539 µM and 2.03 µM | 0.612 µM | 0.408 µM and 1.12 µM | 0.218 µM and 0.332 µM | 1.67 µM and 2 µM | 0.417 µM and 0.682 µM | 0.379 µM and 1.56 µM | 0.252 µM and 1.42 µM | 0.345 µM and 0.467 µM | 0.314 µM and 0.535 µM |
| CCOC(=O)c1c(C)n(Cc2ccc(Cl)cc2Cl)c2c1cc(O)c1[nH]c(Cc3ccccc3)nc12 | 8.66 µM | 5.23 | 5.38 µM | 4.16 µM | 4.62 µM | 12.1 | 29 | 12.1 µM | 10.6 µM | 8.13 µM | 3.07 µM | 2.4 µM | 2.27 µM | 1.77 µM | 2.05 µM | 3.41 µM | 7.07 µM | 4 µM | 3.6 µM | 2.97 µM |
| O=C1C=CC(=O)N1c1ccc2ccccc2c1 | 25.6 µM | 12.9 | 33.5 µM | 22.2 µM | 71 µM | 33.8 | 19.1 | 34.1 µM | 37.2 µM | 8.75 µM | 12.3 µM | 3.98 µM | 7.74 µM | 7.59 µM | 24.1 µM | 17.8 µM | 6.4 µM | 16.6 µM | 17.1 µM | 3.23 µM |
| COc1cccc2c1C(=O)c1c(O)c3c(c(O)c1C2=O)C[C@@](O)(C(=O)CO)C[C@@H]3OC1CC2C(OCN2CN2COC3C(C)OC(O[C@H]4C[C@](O)(C(=O)CO)Cc5c(O)c6c(c(O)c54)C(=O)c4c(OC)cccc4C6=O)CC32)C(C)O1 (stereo partly specified) | > 1 µM | 0.0101 | – | > 0.293 µM | 0.0609 µM | 0.0979 | 0.0752 | 0.101 µM | 0.0316 µM | 0.0534 µM | 0.00312 µM | 0.000978 µM | 0.000329 µM | 0.00606 µM | 0.0139 µM | 0.00291 µM | 0.0205 µM | 0.00924 µM | 0.00477 µM | 0.0142 µM |
| O=C1OC(=O)c2c1cc1cc3c(cc1c2-c1ccc2c(c1)OCO2)OCO3 | > 100 µM | > 100 | > 100 µM | > 100 µM | > 100 µM | > 100 | > 100 | > 100 µM | > 100 µM | > 100 µM | – | – | – | – | – | – | – | – | – | – |
